Laboratory results as given in patent US8937187B2, “Method for depigmenting keratin materials using resorcinol derivatives” (L'Oreal, priority 2010, dated 2015).

Columns and labels:
[1] = tested on: co-culture of keratinocytes and melanocytes; assay: Cytotoxicity by estimation of the incorporation of leucine; format: cell-based
Description: The modulatory effect of compound 1 on melanogenesis was measured by the method described in patent FR-[…]. Schmidt, P. […], Anal. Biochem., 235(2), 113-18, 1996. This test is carried out on a co-culture of keratinocytes and melanocytes. […] The test was also carried out with arbutin and kojic acid, which are known depigmenting compounds.

[2] = tested on: co-culture of keratinocytes and melanocytes; assay: Inhibitory activity on melanin synthesis (constitutive melanogenesis), ratio of thiouracil to leucine incorporation; format: cell-based; details: for IC50: thiouracil/leucine incorporation ratio relative to 100% of the control, read-out: IC50 (concentration for which 50% of the synthesis of melanin is inhibited)
Description: The modulatory effect of compound 1 on melanogenesis was measured by the method described in patent FR-A-2 734 825 and also in the article by R. Schmidt, P. Krien and M. Régnier, Anal. Biochem., 235(2), 113-18, 1996. This test is carried out on a co-culture of keratinocytes and melanocytes.
For the compound tested, the following parameters were ascertained: • the cytotoxicity, by estimation of the incorporation of leucine, • the inhibitory activity on melanin synthesis, by estimating the ratio of incorporation of thiouracil to the incorporation of leucine, relative to 100% of the control (the control corresponds to the test carried out without compound tested). The IC50 values (concentration for which 50% of the synthesis of melanin is inhibited) were ascertained.
The test was also carried out with arbutin and kojic acid, which are known depigmenting compounds.

Row | SMILES | Cytotoxicity on co-culture [1] | IC50 [2] [µM] | efficacy in inhibiting melanogenesis compared with arbutin and kojic acid [2] | melting point [°C]
1 | CCCCN1C(=O)CC(Cc2ccc(O)cc2O)C1=O (centres unmarked) [drawing 126] | Non-cytotoxic | 8.3 |  | 
2 | OC[C@H]1O[C@@H](Oc2ccc(O)cc2)[C@H](O)[C@@H](O)[C@@H]1O [Arbutin, reference compound] | Non-cytotoxic | > 500 |  | 
3 | O=C1CC(=O)C(Cc2ccc(O)cc2O)C1 (centres unmarked) | Non-cytotoxic | 52 |  | 
4 | O=C1CC(Cc2ccc(O)cc2O)C(=O)N1 (centres unmarked) [Compound 1, 3-(2,4-dihydroxybenzyl)pyrrolidine-2,5-dione] |  |  | more effective than arbutin and kojic acid | 
5 | CCCCN1C(=O)CC(Cc2ccc(O)cc2O)C1=O (centres unmarked) [Compound 7, 3-(2,4-dihydroxybenzyl)-1-butylpyrrolidine-2,5-dione] |  |  | more effective than arbutin and kojic acid | 122 to 123
6 | O=C1CC(Cc2ccc(O)cc2O)C(=O)N1CCO (centres unmarked) [drawing 129] | Non-cytotoxic | 14.9 |  | 
7 | O=c1cc(CO)occ1O [Kojic acid, reference compound] | 100 µM | > 500 |  | 
8 | O=C1CC(Cc2ccc(O)cc2O)C(=O)N1CCO (centres unmarked) [Compound 12, 3-(2,4-dihydroxybenzyl)-1-(2-hydroxyethyl)pyrrolidine-2,5-dione] |  |  | more effective than arbutin and kojic acid | 
9 | CCOC(=O)CN1C(=O)CC(Cc2ccc(O)cc2O)C1=O (centres unmarked) [drawing 128] | Non-cytotoxic | 9.2 |  | 
10 | CCOC(=O)CN1C(=O)CC(Cc2ccc(O)cc2O)C1=O (centres unmarked) [Compound 32, ethyl [3-(2,4-dihydroxybenzyl)-2,5-dioxopyrrolidin-1-yl]acetate] |  |  | more effective than arbutin and kojic acid | 
